The values that follow come from patent US20170304388A1, “NEW INDICATION OF CARDIOVASCULAR DRUGS FOR PREPARATION OF CANCER INHIBITION PHARMACEUTICAL COMPOSITION” (LAUNX BIOMEDICAL CO., LTD., priority 2014, published 2017).

Type in all cases: cell-based
Experiment [1] concerns A375 (Amelanotic Melanoma). In words: Cell viability analysis (WST-1), A375. Conditions: Homo sapiens, WST-1, OD450 nm, lower viability = better inhibition, read-out: survival rate (viability) of cancer cells, A375.
The subject of experiment [2] is HCT116 (Colorectal Carcinoma). The experiment can be described thus: Cell viability analysis (WST-1), HCT116. Conditions: Homo sapiens, HCT-116, 72 h, Table 3, drug 10 μM, WST-1, OD450 nm, read-out: survival rate (viability) of cancer cells, HCT116 (WT). (Tetrazolium dyes change colour on reduction, which living cells bring about.)
The subject of experiment [3] is HepG2 (Hepatocellular Carcinoma). In words: Cell viability analysis (WST-1), HepG2. Conditions: Homo sapiens, WST-1, OD450 nm, read-out: survival rate (viability) of cancer cells, HepG2.
The test system of experiment [4] is HeLa (Cervix Adenocarcinoma). In words: Cell viability analysis (WST-1), HeLa. As to conditions: Homo sapiens, HeLa, WST-1, OD450 nm, read-out: survival rate (viability) of cancer cells, HeLa.
Experiment [5] relates to AGS (Gastric Adenocarcinoma). The experiment can be described thus: Cell viability analysis (WST-1), AGS. Conditions: WST-1, OD450 nm, read-out: survival rate (viability) of cancer cells, AGS.
In experiment [6] the test system is H1650 (Lung Adenocarcinoma). In words: Cell viability analysis (WST-1), H1650. Conditions: Homo sapiens, WST-1, OD450 nm, read-out: survival rate (viability) of cancer cells, H1650.
Experiment [7] concerns MKN-45 (Gastric Adenocarcinoma). In words: Cell viability analysis (WST-1), MKN-45. As to conditions: Homo sapiens, WST-1, OD450 nm, read-out: survival rate (viability) of cancer cells, MKN-45.
Experiment [8] concerns TSGH-8301 (Urinary Bladder Carcinoma). In words: Cell viability analysis (WST-1), TSGH-8301. Conditions: WST-1, OD450 nm, read-out: survival rate (viability) of cancer cells, TSGH.
Experiment [9] has as its system A549 (Lung Adenocarcinoma). The experiment can be described thus: Cell viability analysis (WST-1), A549. As to conditions: Homo sapiens, WST-1, OD450 nm, read-out: survival rate (viability) of cancer cells, A549.
The test system of experiment [10] is MCF7 (Mammary Gland, Adenocarcinoma). The experiment can be described thus: Cell viability analysis (WST-1), MCF7. As to conditions: Homo sapiens, WST-1, OD450 nm, read-out: survival rate (viability) of cancer cells, MCF7.
Experiment [11] deals with PC3 (Prostate Adenocarcinoma). In words: Cell viability analysis (WST-1), PC3. Conditions: WST-1, OD450 nm, read-out: survival rate (viability) of cancer cells, PC3.
Experiment [12] has as its system LoVo (Colorectal Adenocarcinoma). The experiment can be described thus: Cell viability analysis (WST-1), LoVo. Conditions: Homo sapiens, LoVo, WST-1, OD450 nm, read-out: survival rate (viability) of cancer cells, LoVo.
In experiment [13] the test system is HL-60 (Acute Promyelocytic Leukemia). The experiment can be described thus: Cell viability analysis (WST-1), HL-60. As to conditions: Homo sapiens, HL-60; Table 3; drug 10 μM, 72 hours, WST-1, OD450 nm; read-out: survival rate (viability) of cancer cells, HL-60.
In another experiment the test system is cancer cell lines. The experiment can be described thus: Growth inhibitory effects on the panel of cancer cell lines. Conditions: drug 10 μM, 72 hours; for Numbers of inhibitory effect on cancer cell line: count of cancer cell lines inhibited; for inhibition effect on different cancer cell lines (in words): WST-1.
[14] abbreviates: A-375, 72 h, Table 3, drug 10 μM.
Where [15] appears, read: HepG2, 72 h, Table 3, drug 10 μM.
[16] abbreviates: NCI-H1650, 72 h, Table 3, drug 10 μM.
Where [17] appears, read: MKN-45, 72 h, Table 3, drug 10 μM.
Setting [18] is: A549, 72 h, Table 3, drug 10 μM.
[19] abbreviates: MCF7, 72 h, Table 3, drug 10 μM.

Counter-ions that a name gives are not always drawn. Like-named read-outs stand apart in the source and are kept apart here.

For `CCCSc1nc(N[C@@H]2C[C@H]2c2ccc(F)c(F)c2)c2nnn([C@@H]3C[C@H](OCCO)[C@@H](O)[C@H]3O)c2n1` [Ticagrelor], the viability at 10 µM in experiment [1] (setting [14]) was found to be 60.1%; in [2], 73.6%; in [3] (setting [15]), 94.5%; in experiment [4] (72 h, Table 3, drug 10 μM) it was 126%; in experiment [5] (72 h, Table 3, drug 10 μM), 100%; in experiment [6] (setting [16]), 76%. Further, the viability at 10 µM was 114% in [7] (setting [17]); 86% in experiment [8] (72 h, Table 3, drug 10 μM); 85% in experiment [9] (setting [18]); 83.1% in experiment [10] (setting [19]); 84.1% in experiment [11] (72 h, Table 3, drug 10 μM); 79.6% in experiment [12] (72 h, Table 3, drug 10 μM). For the same compound, in experiment [13], the viability at 10 µM was 93.7%. Besides, in the experiment on cancer cell lines, the “Numbers of inhibitory effect on cancer cell line” value (from here on “Numbers of inhibitory effect”) is on record as 0. Also, the “inhibition effect on different cancer cell lines (in words)” value with cancer cell lines was “significant inhibition effect”.
Turning to `CCN(CC)CCOC(=O)C(c1ccccc1)c1ccccc1` [Adiphenine HCl], the viability at 10 µM in [1] (setting [14]) was determined as 87.6%; in experiment [2], 134%; in [3] (setting [15]), 95.5%; in [4] (72 h, Table 3, drug 10 μM), 96.4%; in [5] (72 h, Table 3, drug 10 μM) it was 109%; in [6] (setting [16]) it was 119%. Besides, the viability at 10 µM was determined as 95.7% in experiment [7] (setting [17]); 82% in [8] (72 h, Table 3, drug 10 μM); 86.8% in experiment [9] (setting [18]); 103% in experiment [10] (setting [19]); 102% in [11] (72 h, Table 3, drug 10 μM); 95.7% in experiment [12] (72 h, Table 3, drug 10 μM). Also, the viability at 10 µM in experiment [13] stood at 105%. Also, in the experiment on cancer cell lines, the “Numbers of inhibitory effect” value is reported as 0. Besides, the “inhibition effect on different cancer cell lines (in words)” value with cancer cell lines was “significant inhibition effect”.
As for `Cc1c(OCC(F)(F)F)ccnc1C[S@@+]([O-])c1nc2ccccc2[nH]1` [Dexlansoprazole], the viability at 10 µM in [1] (setting [14]) is 75.1%; in experiment [2] it was 82.8%; in experiment [3] (setting [15]) it was 120%; in [4] (72 h, Table 3, drug 10 μM), 105%; in [5] (72 h, Table 3, drug 10 μM), 89.8%; in experiment [6] (setting [16]) it was 69.6%. Also, the viability at 10 µM in experiment [7] (setting [17]) is 85.8%; in experiment [8] (72 h, Table 3, drug 10 μM), 84.9%; in [9] (setting [18]), 74.5%; in experiment [10] (setting [19]) it was 72.1%; in experiment [11] (72 h, Table 3, drug 10 μM), 104%; in experiment [12] (72 h, Table 3, drug 10 μM), 102%. In [13], the viability at 10 µM came out at 72.2%. Besides, in the experiment with cancer cell lines, the “Numbers of inhibitory effect” value was 0. Besides, the “inhibition effect on different cancer cell lines (in words)” value in the experiment on cancer cell lines is recorded as “significant inhibition effect”.
For the compound `Cc1cccc(C)c1N=C1NCCCS1` [Xylazine HCl], the viability at 10 µM worked out at 63.5% in [1] (A-375, Table 3, drug 10 μM, 72 hours); 83.5% in [3] (HepG2, Table 3, drug 10 μM, 72 hours); 65.1% in experiment [4] (Table 3, drug 10 μM, 72 hours); 86.3% in experiment [5] (Table 3, drug 10 μM, 72 hours); 67.2% in experiment [6] (NCI-H1650, Table 3, drug 10 μM, 72 hours); 88.7% in experiment [7] (MKN-45, Table 3, drug 10 μM, 72 hours). Further, the viability at 10 µM in [8] (Table 3, drug 10 μM, 72 hours) worked out at 61.5%; in [9] (A549, Table 3, drug 10 μM, 72 hours) it was 71.7%; in [10] (MCF7, Table 3, drug 10 μM, 72 hours), 104%; in [11] (Table 3, drug 10 μM, 72 hours), 105%; in [12] (Table 3, drug 10 μM, 72 hours), 96.6%; in experiment [13] it was 116%. Besides, the “Numbers of inhibitory effect” value with cancer cell lines is listed as 0. Moreover, the “inhibition effect on different cancer cell lines (in words)” value with cancer cell lines was “significant inhibition effect”.
On to `CO[C@@H]1[C@@H](OC(N)=O)[C@@H](O)[C@H](Oc2ccc3c(O)c(NC(=O)c4ccc(O)c(CC=C(C)C)c4)c(=O)oc3c2C)OC1(C)C` [Novobiocin sodium (Albamycin), Novobiocin sodium], for which the viability at 10 µM was determined as 93.4% in [1] (setting [14]); 116% in experiment [2]; 92% in experiment [3] (setting [15]); 96.1% in experiment [4] (72 h, Table 3, drug 10 μM); 128% in experiment [5] (72 h, Table 3, drug 10 μM); 93.5% in experiment [6] (setting [16]). The viability at 10 µM in [7] (setting [17]) stood at 84.4%; in [8] (72 h, Table 3, drug 10 μM), 85.3%; in experiment [9] (setting [18]), 95.2%; in experiment [10] (setting [19]), 109%; in [11] (72 h, Table 3, drug 10 μM), 89%; in experiment [12] (72 h, Table 3, drug 10 μM) it was 87.1%. Further, the viability at 10 µM in experiment [13] worked out at 123%. Moreover, the “Numbers of inhibitory effect” value in the experiment with cancer cell lines came to 0. Further, the “inhibition effect on different cancer cell lines (in words)” value with cancer cell lines was “significant inhibition effect”.
Consider `Cc1cccc(Cc2c[nH]cn2)c1C` [Detomidine HCl], for which the viability at 10 µM in experiment [1] (setting [14]) was determined as 84.8%; in [2], 133%; in [3] (setting [15]) it was 102%; in experiment [4] (72 h, Table 3, drug 10 μM) it was 88.8%; in [5] (72 h, Table 3, drug 10 μM), 68.5%; in [6] (setting [16]), 90.6%. Also, the viability at 10 µM in experiment [7] (setting [17]) is 91%; in experiment [8] (72 h, Table 3, drug 10 μM) it was 74.2%; in [9] (setting [18]), 81.1%; in experiment [10] (setting [19]), 106%; in experiment [11] (72 h, Table 3, drug 10 μM) it was 89.2%; in experiment [12] (72 h, Table 3, drug 10 μM), 91%. In experiment [13], the viability at 10 µM was 105%. For the same compound, in the experiment on cancer cell lines, the “Numbers of inhibitory effect” value was found to be 0. Moreover, the “inhibition effect on different cancer cell lines (in words)” value with cancer cell lines is “significant inhibition effect”.
`Cc1[nH]c(=O)c(C#N)cc1-c1ccncc1` [Milrinone (Primacor), Milrinone]: the viability at 10 µM in [2] was found to be 104%; in experiment [3] (setting [15]), 98.5%; in experiment [4] (72 h, Table 3, drug 10 μM), 99%; in [5] (72 h, Table 3, drug 10 μM), 130%; in experiment [6] (setting [16]) it was 86.2%; in experiment [7] (setting [17]) it was 92.9%. For the same compound, the viability at 10 µM was determined as 90.9% in [9] (setting [18]); 98.5% in [10] (setting [19]); 92% in experiment [11] (72 h, Table 3, drug 10 μM); 90.5% in experiment [12] (72 h, Table 3, drug 10 μM); 112% in [13]. In the experiment on cancer cell lines, the “Numbers of inhibitory effect” value is on record as 0. For the same compound, the “inhibition effect on different cancer cell lines (in words)” value in the experiment with cancer cell lines is recorded as “significant inhibition effect”.
With `O=C(O)/C=C/c1ccc(Cn2ccnc2)cc1` [Ozagrel], the viability at 10 µM worked out at 74.7% in [1] (setting [14]); 102% in experiment [2]; 91.2% in [3] (setting [15]); 77.7% in [4] (72 h, Table 3, drug 10 μM); 98.5% in experiment [5] (72 h, Table 3, drug 10 μM); 80.6% in [6] (setting [16]). In addition, the viability at 10 µM in [7] (setting [17]) came to 93.9%; in [8] (72 h, Table 3, drug 10 μM), 69.4%; in experiment [9] (setting [18]), 77.7%; in experiment [10] (setting [19]), 102%; in experiment [12] (72 h, Table 3, drug 10 μM), 80.6%; in experiment [13] it was 118%. Besides, the “Numbers of inhibitory effect” value with cancer cell lines was found to be 0. Further, the “inhibition effect on different cancer cell lines (in words)” value in the experiment with cancer cell lines is reported as “significant inhibition effect”.

What is called viability is a read-out of living cells in per cent, often relative to untreated cells.
